The values that follow come from patent US11452764B2, “Inhibiting FAK-AKT interaction to inhibit metastasis” (Board of Trustees of Michigan State University, priority 2017, dated 2022).

Entries after “also recorded” stand apart in the source; their conditions may differ. Bounds are passed on as bounds.

One experiment relates to SW620 colon cancer cells. The experiment can be described thus: Adhesion assay of SW620 cells to collagen I at ambient or 15 mmHg increased pressure (ZINC compounds). Type of experiment: cell-based, human. The note with it: 30 minutes; for Concentration at which pressure stimulated adhesion was blocked / Pressure stimulated adhesion: 15 mmHg; for Pressure stimulated adhesion / Basal adhesion: concentrations studied 10-200 μM (per compound in Table 3); for Basal adhesion: ambient pressure. The method, then: (§1) Extracellular pressure was increased by 15 mmHg over ambient pressure using a temperature and pressure-controlled box as described by Basson et al. (J Cell Biochem, 78: 47-61 (2000)).
Cells were seeded in an amount of 50,000 cells/well into 24 well plates precoated with collagen I (Sigma, St. Louis, Mo., USA) at 37° C. under ambient or 15 mmHg increased pressure as described by Basson et al. J Cell Biochem 78: 47-61 (2000)). After 30 minutes, non-adherent cells were washed away. Adherent cells were stained with MTS (CellTiter 96® AQueous One Solution Cell Proliferation Assay, Madison, Wis., USA) and plates were read at 490 nm.
Seven molecules were studied that structurally mimic AAHPSEE (SEQ ID NO:24), including five analogs of ZINC04085549 (FIG. 16A-16G). These molecules' effects on basal and pressure-stimulated human SW620 colon cancer cell adhesion to collagen I were assayed first. Most molecules had no effect at the concentrations studied (Table 3).

Experiment [1] deals with FAK-Tyr-397 phosphorylation. The experiment can be described thus: FAK-Y397 western blotting in suspended SW620 cells at ambient or 15 mmHg increased pressure (ZINC compounds). Type of experiment: cell-based, human. The note with it: 50 μM.
Excerpt: as §1
Cells were maintained at ambient or increased pressure in bacteriologic plastic dishes pacificated with heat-inactivated bovine serum albumin to prevent adhesion and avoid adhesion-associated background FAK activation. Cells were lysed in lysis buffer, resolved by 10% SDS-PAGE, transferred to nitrocellulose and blotted with antibody to Tyr-397-phosphorylated FAK (rabbit monoclonal ab81298, Abcam, San Francisco, Calif., USA) and anti-rabbit 680 (LI-COR Inc. Lincoln, Nebr., USA), before quantitation using Kodak Scientific Imaging Systems 1D, V.3.5.4 (Zeng et al., Oncotarget, 8 98051-98067 (2017)). Total FAK (Anti-FAK, clone 4.47 Merck, Darmstadt, Germany with secondary anti-mouse 800, LI-COR Inc. Lincoln, Nebr., USA) served as a loading control. FAK and Tyr-397-phosphorylated FAK western blots yielded doublets similar to those previously observed by others (McConnell et al. Mol Cancer 10: 75 (2011); Aflaki et al. Cell Mol Life Sci, 68: 3933-3947 (2011)); Das et al. Cancer Res, 72: 6217-6226 (2012); Ammoun et al. Oncogene, 31: 1710-1722 (2012)). Both bands were quantitated together.
Four structurally similar molecules to the FAK-derived sequence LAHPP (SEQ ID NO:25) (Table 2) were evaluated for their ability to prevent FAK activation by 15 mmHg increased extracellular pressure in human SW620 colon cancer cells. […] The structures of these compounds are shown below (and in FIG. 17).

Another experiment has as its target Akt1 (Homo sapiens, UniProt P31749). Conditions: Zeng et al., Oncotarget 2017; cited from earlier work.

Chain of Akt1 (P31749 whole entry, species assumed): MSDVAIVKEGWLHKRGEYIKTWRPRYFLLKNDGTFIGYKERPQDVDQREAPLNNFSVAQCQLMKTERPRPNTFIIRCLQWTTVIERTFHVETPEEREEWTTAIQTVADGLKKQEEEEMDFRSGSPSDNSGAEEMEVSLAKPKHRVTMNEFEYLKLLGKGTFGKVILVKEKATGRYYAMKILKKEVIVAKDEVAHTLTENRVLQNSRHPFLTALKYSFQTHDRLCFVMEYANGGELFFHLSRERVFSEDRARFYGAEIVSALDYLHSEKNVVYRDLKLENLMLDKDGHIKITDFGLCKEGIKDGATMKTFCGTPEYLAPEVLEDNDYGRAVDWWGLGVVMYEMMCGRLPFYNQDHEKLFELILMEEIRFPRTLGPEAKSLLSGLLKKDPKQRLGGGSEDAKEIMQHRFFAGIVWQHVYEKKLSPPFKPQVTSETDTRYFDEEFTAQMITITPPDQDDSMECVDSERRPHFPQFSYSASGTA

Consider `Cc1ccccc1C(=O)O/N=C1\CCCCC1c1ccc([N+](=O)[O-])cc1[N+](=O)[O-]` (stereo not drawn) [ZINC04085549], for which, in the experiment with SW620 colon cancer cells, the “Concentration at which pressure stimulated adhesion was blocked” value is no less than 50 µM, the Pressure stimulated adhesion entry is reported as “prevented pressure-stimulated increases in SW620 adhesion; also recorded: Blocked” and the Basal adhesion result is given as “without altering basal adhesiveness at ambient pressure; also recorded: Maintained”. The “Basal ambient pressure FAK-Tyr-397 phosphorylation” value in experiment [1] (suspended SW620) is recorded as “without affecting basal ambient pressure FAK-Tyr-397 phosphorylation”. Moreover, the “Pressure-stimulated FAK-Tyr-397 phosphorylation” value in experiment [1] (suspended SW620, 15 mmHg) is “prevented pressure-stimulated FAK-Tyr-397 phosphorylation”.
On to `COc1ccc(C(=O)O/N=C2\CCCCC2c2ccc([N+](=O)[O-])cc2[N+](=O)[O-])cc1` (stereo not drawn) [ZINC4085554], for which, in the experiment with SW620 colon cancer cells, the “Concentration at which pressure stimulated adhesion was blocked” value was no less than 50 µM, the Pressure stimulated adhesion result is on record as “prevented pressure-stimulated increases in SW620 adhesion; also recorded: Blocked” and the Basal adhesion result is “without altering basal adhesiveness at ambient pressure; also recorded: Maintained”.
Regarding “AAHPSEE [two-site mutant of FAK residues 113-119, more helical analog used as screening query]”, in the experiment with Akt1, the “Competition with FAK for binding to AKT1” value is listed as “effectively compete with FAK for binding to AKT1”.
